Here are results for four molecules from patent US4772684A, “Peptides affecting blood pressure regulation” (Triton Biosciences, Inc., priority 1988, dated 1988).

One test deals with rat hypertension model. Kind of test: Blood pressure in anesthetized rats (rat hypertension model). The class given is in vivo. The method, then:
Peptide 2 of this invention was tested in vivo, using a rat hypertension model. Adult male rats (n=4) were anesthetized with sodium pentobarbital (50 mg/kg) and the left jugular vein was cannulated for infusion of drugs. Bolus injections of angiotensin II were delivered via the same venous catheter. The right carotid artery was cannulated for measurement of blood pressure. Injection of angiotensin II (1 ng) caused an increase in mean arterial blood pressure (^~ 50 mm Hg).

The test system of test [1] is isolated rabbit aorta strips. Kind of test: Saralasin block of AII contraction and peptide-stimulated contraction in muscle strips. The format is cell-based. As to conditions: saralasin 10^-8 M; AII 10^-9 M.
The next test has as its system dog femoral vein. The test can be described thus: Angiotensin II-caused relaxation of isolated dog venous strips. The format is cell-based. As to conditions: angiotensin II 3×10^-7 M. On the procedure: Peptide 2 of this invention was tested in vitro, using an assay of isolated dog venous strips mounted in a muscle bath. Isolated segments of the dog femoral vein (n=2) were mounted in organ baths for measurement of isometric force generation. The conditions were as described in Example 3. The vascular segments were made to contract in response to prostaglandin F2a (8.5×10^-7 M). After the contraction reached a plateau, angiotensin II (3×10^-7 M) was added to the organ bath and the venous segments relaxed to approximately 50% of the response to prostaglandin F2a. This relaxation response to angiotensin II was inhibited 100% by saralasin ([…]) and by Peptide 2 (10^-5 M).

In a further test the test system is angiotensin II receptors. Kind of test: Inhibition of radiolabeled angiotensin II binding to isolated hepatic receptor. As to conditions: for ID50 (concentration of peptide that inhibited binding of radiolabeled angiotensin II by 50%): 0.25 nM [125I]angiotensin II, partially purified solubilized rabbit liver receptor, 60 minutes at 20° C. Also noted: species or system rabbit. On the procedure:
Inhibition of angiotensin II binding to angiotensin II receptors by peptides of this invention was measured through the use of radioactive angiotensin II. Rabbit livers were homogenized and centrifuged in order to isolate particles sedimenting between 1,000 and 100,000×g. A portion of the particles which binds angiotensin II was solubilized with 1% digitonin, followed by ammonium sulfate fractionation between 49 and 65% saturation, followed by DEAE-cellulose chromatography at pH 7.5 using a linear gradient between 0.0 and 0.3 M KCl. The partially purified, solubilized receptor preparation bound 17 pmoles of angiotensin II per mg of protein when analyzed by Scatchard analysis, indicating a purity of approximately 0.1%.
The assay for binding of angiotensin II to the receptor was as follows: The complete system (150 μl) contained 30 mM Tris-HCl, pH 7.5, 2.5 mM K2 EDTA, 0.2 mM PCMS, 0.25 nM [^125 I]angiotensin II (ca. 100,000 cpm), 100 μg BSA, 0.25% (v/v) Brij 99 (a polyoxyethylene ether of a fatty alcohol) and 30 μg of partially purified receptor. The reaction was initiated by addition of the receptor and samples were incubated for 60 minutes at 20° C. The reaction was terminated with 1 ml of cold 0.5% charcoal/0.05% dextran in 100 mM Tris-HCl, pH 7.5. Tubes were vortexed and then allowed to stand 10 minutes at 4° C., after which they were centrifuged and their supernatants, containing protein-bound angiotensin II, were counted.
The complete system under these conditions regularly yields about 10,000 cpm of bound radioactivity. […] A sample including 20 nM cold angiotensin II was also run. Residual binding of radioactivity in this control was 35-45%. Certain peptides of this invention were dissolved in water, except for Peptide 5, which was dissolved in 3% DMSO, 0.04 M acetic acid, and 0.05 M HCl in water.

Test [2] concerns isolated rabbit aorta strips. The test can be described thus: Contractile response of isolated arterial smooth muscle strips in muscle bath. The format is cell-based. As to conditions: cumulative addition. The method, then:
(§1) The peptides of this invention were tested in vitro, using an assay of isolated rabbit aorta strips mounted in a muscle bath.
The left anterior descending coronary artery was excised from the heart and cut helically into a strip under a dissecting microscope. Strips were mounted vertically on a glass holder in a tissue bath containing 50 ml of PSS. The upper end of each strip was connected to a force transducer. The bathing medium was maintained at 37° C. and aerated with a mixture of 95% O2 -5% CO2. The pH of the PSS was 7.2 and the composition, in mmoles/l, was as follows: NaCl 130, KCl 14.7, KH2 PO4 1.18, MgSO4 7H2 O 1.17, CaCl2 -2H2 O 1.6, […] 14.9, dextrose 5.5, and CaNa2 EDTA 0.03. In all experiments, the passive force on each strip was adjusted to 2,000 mg.
In one set of experiments, peptides were tested for ability to stimulate contractile response. Peptide was added to the bath in a step-wise, cumulative manner. Three peptides were tested: angiotensin II., Peptide 2 and Peptide 5. Muscle strips from between 2 and 6 rabbits were used to test each peptide.

In test [3] the test system is AII-stimulated contraction of isolated rabbit aorta strips. Kind of test: Peptide effect on AII-stimulated contraction of arterial muscle strips. The format is cell-based. As to conditions: AII 10^-9 M. On the procedure: as §1
Strips were mounted vertically on a glass holder in a tissue bath containing 50 ml of PSS. The upper end of each strip was connected to a force transducer. The bathing medium was maintained at 37° C. and aerated with a mixture of 95% O2 -5% CO2. The pH of the PSS was 7.2 and the composition, in mmoles/l, was as follows: NaCl 130, KCl 14.7, KH2 PO4 1.18, MgSO4 7H2 O 1.17, CaCl2 -2H2 O 1.6, […] 14.9, dextrose 5.5, and CaNa2 EDTA 0.03. In all experiments, the passive force on each strip was adjusted to 2,000 mg.
In another set of experiments, the ability of peptides to increase or decrease contraction caused by angiotensin II was measured.
The muscle strips were bathed in PSS containing AII, 10^-9 M. Strips were allowed to contract until a steady-state contraction was reached (^~8 minutes), then peptide was added in a step-wise. cumulative manner. The change in muscle strip contraction was measured after each addition of peptide, and more peptide was not added until contraction had stabilized from the previous peptide addition (10-15 minutes). Each peptide was tested in strips from 2 or 4 rabbits.
A positive value indicates increased contraction, while a negative value represents a decreased contractile response.

Non-standard residues stand in square brackets, D forms with d. Residues, ends and D or L forms follow the SMILES beside them.

Consider `CNCC(=O)N[C@@H](CCCN=C(N)N)C(=O)N[C@H](C(=O)N[C@@H](Cc1ccc(O)cc1)C(=O)N[C@H](C(=O)N[C@@H](Cc1cnc[nH]1)C(=O)N1CCC[C@H]1C(=O)N[C@@H](C)C(=O)O)C(C)C)C(C)C` [saralasin], for which the “Effect on pressor activity of angiotensin II” value in the test with rat hypertension model (constant infusion 1 mg/min, angiotensin II 1 ng) is “inhibited the pressor activity of angiotensin II”. In test [1], the “Effect on AII contraction” value is on record as “decreased AII contraction”. The “Inhibition of relaxation response to angiotensin II” value with dog femoral vein (10^6 M (so in the source)) is 100%.

With “Angiotensin II (DRVYIHPF; Angiotensin-2; UniProt P01019 25-32, looked up) [an octapeptide formed from angiotensin I by angiotensin converting enzyme; causes blood vessel constriction, reference compound]”, in the test on angiotensin II receptors, the “ID50 (concentration of peptide that inhibited binding of radiolabeled angiotensin II by 50%)” value fell in the range of 12 to 15 nM. Further, the “Residual binding of radioactivity” value in the test with angiotensin II receptors (20 nM cold angiotensin II) is reported as 35-45%. The “Increase in mean arterial blood pressure” value with rat hypertension model (bolus injection 1 ng, jugular vein, anesthetized rats) is listed as ~ 50 mm Hg. Further, in the test on dog femoral vein (prostaglandin F2a 8.5×10^-7 M), the “Relaxation of venous segments, as % of the response to prostaglandin F2a” value is reported as “approximately 50%”. The “Average Baseline Response” value in test [2] (3 × 10^-8 M) is given as 2,613 mg; in test [2] (3 × 10^-9 M), 2,332 mg; in test [2] (3 × 10^-10 M) it was 991 mg; in test [2] (3 × 10^-11 M), 0 mg; in test [2] (10^-8 M), 2,562 mg; in test [2] (10^-9 M) it was 1,726 mg. In addition, the “Average Baseline Response” value in test [2] (10^-10 M) and in test [2] (10^-11 M) was 0 mg in each case.

With `CC[C@H](C)[C@H](NC(=O)[C@H](Cc1ccc(O)cc1)NC(=O)[C@@H](NC(=O)CNC(=O)[C@@H](N)CCCCN)C(C)C)C(=O)N[C@@H](Cc1c[nH]cn1)C(=O)N[C@@H](C)C(=O)N[C@@H](CC(C)C)C(=O)O` [Peptide 2, NH2LYSGLYVALTYRILEHISALALEUCOOH] (H-KGVYIHAL-OH), in the test on angiotensin II receptors, the “ID50 (concentration of peptide that inhibited binding of radiolabeled angiotensin II by 50%)” value was in the range of 8 to 14 nM. The “Effect on baseline blood pressure” value in the test on rat hypertension model (infusion 0.1 to 0.5 mg/min) is recorded as “did not alter baseline blood pressure”. Also, in the test with rat hypertension model (infusion 0.1 to 0.5 mg/min, angiotensin II 1 ng), the “Effect on pressor responses to angiotensin II” value is “did not influence pressor responses to angiotensin II”. Besides, the “% Change from AII Response” value in test [3] (peptide 3 × 10^-5 M) is recorded as -73%; in test [3] (peptide 3 × 10^-6 M), 0%; in test [3] (peptide 10^-4 M), -83%; in test [3] (peptide 10^-5 M), -18%; in test [3] (peptide 10^-6 M), 0%. In addition, the “Inhibition of relaxation response to angiotensin II” value with dog femoral vein (10^-5 M) is 100%. The “Average Baseline Response” value in test [2] (3 × 10^-7 M), in test [2] (3 × 10^-8 M), in test [2] (3 × 10^-9 M), in test [2] (3 × 10^-10 M), in test [2] (10^-6 M) and in test [2] (10^-7 M) was 0 mg in each case. Also, the “Average Baseline Response” value in test [2] (10^-8 M) and in test [2] (10^-9 M) was 0 mg throughout.

Regarding `CC[C@@H](C)[C@@H](NC(=O)[C@@H](Cc1ccc(O)cc1)NC(=O)[C@H](NC(=O)CNC(=O)[C@H](N)CCCCN)C(C)C)C(=O)N[C@H](Cc1c[nH]cn1)C(=O)N[C@H](C)C(=O)N[C@H](CC(C)C)C(=O)O` [Peptide 11, NH2LYSGLYVALTYRILEHISALALEUCOOH] (H-[dK]G[dV][dY][dI][dH][dA][dL]-OH), the “ID50 (concentration of peptide that inhibited binding of radiolabeled angiotensin II by 50%)” value in the test with angiotensin II receptors is reported as > 10,000 nM. Also, the “% Change from AII Response” value in test [3] (peptide 3 × 10^-5 M) is given as -7%; in test [3] (peptide 3 × 10^-6 M), -3%; in test [3] (peptide 10^-4 M) it was -33%; in test [3] (peptide 10^-5 M), -5%; in test [3] (peptide 10^-6 M), 0%.
